Experimental data from patent publication US11331369B2, “Endoparasitic depsipeptides” (Zoetis Services LLC, priority 2017, dated 2022).

Key:
[1] = test system: third stage larvae of Haemonchus contortus; experiment: Haemonchus contortus L3 (HcL3) Assay; type: cell-based; conditions: 96 h, read-out: HcL3 Minimum Effective Dose (MED)
[2] = test system: microfilariae of Dirofilaria immitis; experiment: Dirofilaria immitis, Microfilaria (DiMF) In vitro Assay; type: cell-based; conditions: 72 h, read-out: DiMF Minimum Effective Dose (MED), approximately 72 hours incubation, microfilariae assessed for survival or paralysis

SMILES	minimal effective concentration [1]	minimal effective concentration [2]
CC(C)C[C@H]1C(=O)O[C@H](Cc2ccc(Cn3cc(O)cn3)cc2)C(=O)N(C)[C@@H](CC(C)C)C(=O)O[C@H](C)C(=O)N(C)[C@@H](CC(C)C)C(=O)O[C@H](Cc2ccc(Cn3cc(O)cn3)cc2)C(=O)N(C)[C@@H](CC(C)C)C(=O)O[C@H](C)C(=O)N1C [Example 1b-18, (3S,6R,9S,12R,15S,18R,21S,24R)-6,18-bis(4-((4-hydroxy-1H-pyrazol-1-yl)methyl)benzyl)-3,9,15,21-tetraisobutyl-4,10,12,16,22,24-hexamethyl-1,7,13,19-tetraoxa-4,10,16,22-tetraazacyclotetracosan-2,5,8,11,14,17,20,23-octaone]	≤ 1 µM	
CC(C)C[C@H]1C(=O)O[C@H](Cc2ccc(Cn3cc(N4CCOCC4)cn3)cc2)C(=O)N(C)[C@@H](CC(C)C)C(=O)O[C@H](C)C(=O)N(C)[C@@H](CC(C)C)C(=O)O[C@H](Cc2ccc(Cn3cc(N4CCOCC4)cn3)cc2)C(=O)N(C)[C@@H](CC(C)C)C(=O)O[C@H](C)C(=O)N1C [Example 1b-179, (3S,6R,9S,12R,15S,18R,21S,24R)-3,9,15,21-tetraisobutyl-4,6,10,16,18,22-hexamethyl-12,24-bis(4-((4-morpholino-1H-pyrazol-1-yl)methyl)benzyl)-1,7,13,19-tetraoxa-4,10,16,22-tetraazacyclotetracosan-2,5,8,11,14,17,20,23-octaone]	1 to 10 µM	
CC(C)C[C@H]1C(=O)O[C@H](Cc2ccc(Cn3nccc3C(F)F)cc2)C(=O)N(C)[C@@H](CC(C)C)C(=O)O[C@H](C)C(=O)N(C)[C@@H](CC(C)C)C(=O)O[C@H](Cc2ccc(Cn3nccc3C(F)F)cc2)C(=O)N(C)[C@@H](CC(C)C)C(=O)O[C@H](C)C(=O)N1C [Example 1b-211, (3S,6R,9S,12R,15S,18R,21S,24R)-6,18-bis(4-((5-(difluoromethyl)-1H-pyrazol-1-yl)methyl)benzyl)-3,9,15,21-tetraisobutyl-4,10,12,16,22,24-hexamethyl-1,7,13,19-tetraoxa-4,10,16,22-tetraazacyclotetracosan-2,5,8,11,14,17,20,23-octaone]	≤ 1 µM	
CC(C)C[C@H]1C(=O)O[C@H](Cc2ccc(C(C)(C)n3cc([N+](=O)[O-])cn3)cc2)C(=O)N(C)[C@@H](CC(C)C)C(=O)O[C@H](C)C(=O)N(C)[C@@H](CC(C)C)C(=O)O[C@H](Cc2ccc(C(C)(C)n3cc([N+](=O)[O-])cn3)cc2)C(=O)N(C)[C@@H](CC(C)C)C(=O)O[C@H](C)C(=O)N1C [Example 1c-7, (3S,6R,9S,12R,15S,18R,21S,24R)-3,9,15,21-tetraisobutyl-4,6,10,16,18,22-hexamethyl-12,24-bis(4-(2-(4-nitro-1H-pyrazol-1-yl)propan-2-yl)benzyl)-1,7,13,19-tetraoxa-4,10,16,22-tetraazacyclotetracosan-2,5,8,11,14,17,20,23-octaone]	≤ 1 µM	
Cc1cnn(C(C)(C)c2ccc(C[C@H]3OC(=O)[C@H](CC(C)C)N(C)C(=O)[C@@H](C)OC(=O)[C@H](CC(C)C)N(C)C(=O)[C@@H](Cc4ccc(C(C)(C)n5cc(C)cn5)cc4)OC(=O)[C@H](CC(C)C)N(C)C(=O)[C@@H](C)OC(=O)[C@H](CC(C)C)N(C)C3=O)cc2)c1 [Example 1c-9, (3S,6R,9S,12R,15S,18R,21S,24R)-3,9,15,21-tetraisobutyl-4,6,10,16,18,22-hexamethyl-12,24-bis(4-(2-(4-methyl-1H-pyrazol-1-yl)propan-2-yl)benzyl)-1,7,13,19-tetraoxa-4,10,16,22-tetraazacyclotetracosan-2,5,8,11,14,17,20,23-octaone]	≤ 1 µM	
CC(C)C[C@H]1C(=O)O[C@H](Cc2ccc(C(C)(C)n3cc(Br)cn3)cc2)C(=O)N(C)[C@@H](CC(C)C)C(=O)O[C@H](C)C(=O)N(C)[C@@H](CC(C)C)C(=O)O[C@H](Cc2ccc(C(C)(C)n3cc(Br)cn3)cc2)C(=O)N(C)[C@@H](CC(C)C)C(=O)O[C@H](C)C(=O)N1C [Example 1c-11, (3S,6R,9S,12R,15S,18R,21S,24R)-6,18-bis(4-(2-(4-bromo-1H-pyrazol-1-yl)propan-2-yl)benzyl)-3,9,15,21-tetraisobutyl-4,10,12,16,22,24-hexamethyl-1,7,13,19-tetraoxa-4,10,16,22-tetraazacyclotetracosan-2,5,8,11,14,17,20,23-octaone]	≤ 1 µM	
CC(C)C[C@H]1C(=O)O[C@H](Cc2ccc(Cn3cc(O)cn3)cc2)C(=O)N(C)[C@@H](CC(C)C)C(=O)O[C@H](C)C(=O)N(C)[C@@H](CC(C)C)C(=O)O[C@H](Cc2ccccc2)C(=O)N(C)[C@@H](CC(C)C)C(=O)O[C@H](C)C(=O)N1C [Example 2-30, (3S,6R,9S,12R,15S,18R,21S,24R)-6-benzyl-18-(4-((4-hydroxy-1H-pyrazol-1-yl)methyl)benzyl)-3,9,15,21-tetraisobutyl-4,10,12,16,22,24-hexamethyl-1,7,13,19-tetraoxa-4,10,16,22-tetraazacyclotetracosan-2,5,8,11,14,17,20,23-octaone]	1 to 10 µM	
CC(C)C[C@H]1C(=O)O[C@H](Cc2ccc(Cn3cc(C(N)=O)cn3)cc2)C(=O)N(C)[C@@H](CC(C)C)C(=O)O[C@H](C)C(=O)N(C)[C@@H](CC(C)C)C(=O)O[C@H](Cc2ccccc2)C(=O)N(C)[C@@H](CC(C)C)C(=O)O[C@H](C)C(=O)N1C [Example 2-53, 1-(4-(((2R,5S,8R,11S,14R,17S,20R,23S)-14-benzyl-5,11,17,23-tetraisobutyl-4,8,10,16,20,22-hexamethyl-3,6,9,12,15,18,21,24-octaoxo-1,7,13,19-tetraoxa-4,10,16,22-tetraazacyclotetracosan-2-yl)methyl)benzyl)-1H-pyrazole-4-carboxamide]	1 to 10 µM	
CC(C)C[C@H]1C(=O)O[C@H](Cc2cccc(Cn3cccn3)c2)C(=O)N(C)[C@@H](CC(C)C)C(=O)O[C@H](C)C(=O)N(C)[C@@H](CC(C)C)C(=O)O[C@H](Cc2ccc(Cn3cccn3)cc2)C(=O)N(C)[C@@H](CC(C)C)C(=O)O[C@H](C)C(=O)N1C [Example 3-1, (3S,6R,9S,12R,15S,18R,21S,24R)-3,9,15,21-tetraisobutyl-4,6,10,16,18,22-hexamethyl-12-[[3-(pyrazol-1-ylmethyl)phenyl]methyl]-24-[[4-(pyrazol-1-ylmethyl)phenyl]methyl]-1,7,13,19-tetraoxa-4,10,16, 22-tetrazacyclotetracosane-2,5,8,11,14,17,20,23-octaone]	1 to 10 µM	
Cc1cnn(Cc2ccc(C[C@H]3OC(=O)[C@H](CC(C)C)N(C)C(=O)[C@@H](C)OC(=O)[C@H](CC(C)C)N(C)C(=O)[C@@H](Cc4cccc(Cn5cc(C)cn5)c4)OC(=O)[C@H](CC(C)C)N(C)C(=O)[C@@H](C)OC(=O)[C@H](CC(C)C)N(C)C3=O)cc2)c1 [Example 3-2, (3S,6R,9S,12R,15S,18R,21S,24R)-3,9,15,21-tetraisobutyl-4,6,10,16,18,22-hexamethyl-12-[[3-[(4-methylpyrazol-1-yl)methyl]phenyl]methyl]-24-[[4-[(4-methylpyrazol-1-yl)methyl]phenyl]methyl]-1,7,13,19-tetraoxa-4,10,16,22-tetrazacyclotetracosane-2,5,8,11,14,17,20,23-octaone]	1 to 10 µM	
CC(C)C[C@H]1C(=O)O[C@H](Cc2cccc(Cn3cc(Br)cn3)c2)C(=O)N(C)[C@@H](CC(C)C)C(=O)O[C@H](C)C(=O)N(C)[C@@H](CC(C)C)C(=O)O[C@H](Cc2ccc(Cn3cc(Br)cn3)cc2)C(=O)N(C)[C@@H](CC(C)C)C(=O)O[C@H](C)C(=O)N1C [Example 3-3, (3S,6R,9S,12R,15S,18R,21S,24R)-6-[[3-[(4-bromopyrazol-1-yl)methyl]phenyl]methyl]-18-[[4-[(4-bromopyrazol-1-yl)methyl]phenyl]methyl]-3,9,15,21-tetraisobutyl-4,10,12,16,22,24-hexamethyl-1,7,13,19-tetraoxa-4,10,16,22-tetrazacyclotetracosane-2,5,8,11,14,17,20,23-octaone]	1 to 10 µM	
CC(C)C[C@H]1C(=O)O[C@H](Cc2ccc(CN3CCSc4ncccc43)cc2)C(=O)N(C)[C@@H](CC(C)C)C(=O)O[C@H](C)C(=O)N(C)[C@@H](CC(C)C)C(=O)O[C@H](Cc2ccccc2)C(=O)N(C)[C@@H](CC(C)C)C(=O)O[C@H](C)C(=O)N1C [Example 10-35, (3S,6R,9S,12R,15S,18R,21S,24R)-6-benzyl-18-[[4-(2,3-dihydropyrido[2,3-b][1,4]thiazin-1-ylmethyl)phenyl]methyl]-3,9,15,21-tetraisobutyl-4,10,12,16,22,24-hexamethyl-1,7,13,19-tetraoxa-4, 10,16,22-tetrazacyclotetracosane-2,5,8,11,14,17,20,23-octaone]		0.01 to 0.1 µM
CC(C)C[C@H]1C(=O)O[C@H](Cc2ccc(CN3CCOc4cccnc43)cc2)C(=O)N(C)[C@@H](CC(C)C)C(=O)O[C@H](C)C(=O)N(C)[C@@H](CC(C)C)C(=O)O[C@H](Cc2ccccc2)C(=O)N(C)[C@@H](CC(C)C)C(=O)O[C@H](C)C(=O)N1C [Example 10-37, (3S,6R,9S,12R,15S,18R,21S,24R)-6-benzyl-18-[[4-(2,3-dihydropyrido[3,2-b][1,4]oxazin-4-ylmethyl)phenyl]methyl]-3,9,15,21-tetraisobutyl-4,10,12,16,22,24-hexamethyl-1,7,13,19-tetraoxa-4, 10,16,22-tetrazacyclotetracosane-2,5,8,11,14,17,20,23-octaone]		0.001 to 0.01 µM
CC(C)C[C@H]1C(=O)O[C@H](Cc2ccc(CN3CCSc4ccccc43)cc2)C(=O)N(C)[C@@H](CC(C)C)C(=O)O[C@H](C)C(=O)N(C)[C@@H](CC(C)C)C(=O)O[C@H](Cc2ccccc2)C(=O)N(C)[C@@H](CC(C)C)C(=O)O[C@H](C)C(=O)N1C [Example 10-41, (3S,6R,9S,12R,15S,18R,21S,24R)-6-benzyl-18-(4-((2,3-dihydro-4H-benzo[b][1,4]thiazin-4-yl)methyl)benzyl)-3,9,15,21-tetraisobutyl-4,10,12,16,22,24-hexamethyl-1,7,13,19-tetraoxa-4,10,16,22-tetraazacyclotetracosan-2,5,8,11,14,17,20,23-octaone]		0.01 to 0.1 µM
